According to ChEMBL document CHEMBL3044836, “Synthesis, antimicrobial and cytotoxic activities of novel 4-trifluoromethyl-(1,2,3)-thiadiazolo-5-carboxylic acid hydrazide Schiffs bases” (Med Chem Res, 2013):
≈ marks a conversion by molar mass, not a printed value.

How the values were obtained:
[1] = tested on: MDA-MB-231; experiment: Cytotoxicity against Homo sapiens (human) MDA-MB-231 cells assessed as cell viability at 1 uM after 48 hr by MTT assay relative to control; type: functional; settings: MDA-MB-231, 48 h, read-out: Activity
[2] = tested on: MCF7; experiment: Cytotoxicity against Homo sapiens (human) MCF7 cells assessed as cell viability at 10 uM after 48 hr by MTT assay relative to control; type: functional; settings: MCF7, 48 h, read-out: Activity
[3] = tested on: MDA-MB-231; experiment: Cytotoxicity against Homo sapiens (human) MDA-MB-231 cells assessed as cell viability at 10 uM after 48 hr by MTT assay relative to control; type: functional; settings: MDA-MB-231, 48 h, read-out: Activity
[4] = tested on: Aspergillus niger; experiment: Antifungal activity against Aspergillus niger MTCC 1344 assessed as growth inhibition at 150 ug/ml after 48 hr by agar cup diffusion method; type: functional; settings: MTCC 1344, 48 h, read-out: DIZ
[5] = tested on: Aspergillus niger; experiment: Antifungal activity against Aspergillus niger MTCC 1344 assessed as growth inhibition at 100 ug/ml after 48 hr by agar cup diffusion method; type: functional; settings: MTCC 1344, 48 h, read-out: DIZ
[6] = tested on: Saccharomyces cerevisiae; experiment: Antifungal activity against Saccharomyces cerevisiae MTCC 36 assessed as growth inhibition at 150 ug/ml after 48 hr by agar cup diffusion method; type: functional; settings: MTCC 36, 48 h, read-out: DIZ
[7] = tested on: Saccharomyces cerevisiae; experiment: Antifungal activity against Saccharomyces cerevisiae MTCC 36 assessed as growth inhibition at 100 ug/ml after 48 hr by agar cup diffusion method; type: functional; settings: MTCC 36, 48 h, read-out: DIZ
[8] = tested on: Diutina rugosa; experiment: Antifungal activity against Candida rugosa NCIM 3462 assessed as growth inhibition at 150 ug/ml after 48 hr by agar cup diffusion method; type: functional; settings: NCIM 3462, 48 h, read-out: DIZ
[9] = tested on: Diutina rugosa; experiment: Antifungal activity against Candida rugosa NCIM 3462 assessed as growth inhibition at 100 ug/ml after 48 hr by agar cup diffusion method; type: functional; settings: NCIM 3462, 48 h, read-out: DIZ
[10] = tested on: Candida albicans; experiment: Antifungal activity against Candida albicans MTCC 227 assessed as growth inhibition at 150 ug/ml after 48 hr by agar cup diffusion method; type: functional; settings: MTCC 227, 48 h, read-out: DIZ
[11] = tested on: Candida albicans; experiment: Antifungal activity against Candida albicans MTCC 227 assessed as growth inhibition at 100 ug/ml after 48 hr by agar cup diffusion method; type: functional; settings: MTCC 227, 48 h, read-out: DIZ
[12] = tested on: Klebsiella pneumoniae; experiment: Antibacterial activity against Klebsiella pneumoniae assessed as growth inhibition by broth dilution method; type: functional
[13] = tested on: Pseudomonas aeruginosa; experiment: Antibacterial activity against Pseudomonas aeruginosa MTCC 741 assessed as growth inhibition by broth dilution method; type: functional
[14] = tested on: MCF7; experiment: Cytotoxicity against Homo sapiens (human) MCF7 cells assessed as cell viability after 48 hr by MTT assay; type: functional, cell-based; settings: MCF7, 48 h
[15] = tested on: MDA-MB-231; experiment: Cytotoxicity against Homo sapiens (human) MDA-MB-231 cells assessed as cell viability after 48 hr by MTT assay; type: functional, cell-based; settings: MDA-MB-231, 48 h
[16] = tested on: Staphylococcus aureus; experiment: Antibacterial activity against Staphylococcus aureus MTCC 96 assessed as growth inhibition by broth dilution method; type: functional
[17] = tested on: Bacillus subtilis; experiment: Antibacterial activity against Bacillus subtilis MTCC 441 assessed as growth inhibition by broth dilution method; type: functional; settings: read-out: MIC
[18] = tested on: Staphylococcus epidermidis; experiment: Antibacterial activity against Staphylococcus epidermidis MTCC 435 assessed as growth inhibition by broth dilution method; type: functional; settings: read-out: MIC
[19] = tested on: Escherichia coli; experiment: Antibacterial activity against Escherichia coli MTCC 443 assessed as growth inhibition by broth dilution method; type: functional
[20] = tested on: Aspergillus niger; experiment: Antifungal activity against Aspergillus niger MTCC 1344 assessed as growth inhibition at 50 ug/ml after 48 hr by agar cup diffusion method; type: functional; settings: MTCC 1344, 48 h, read-out: DIZ
[21] = tested on: Saccharomyces cerevisiae; experiment: Antifungal activity against Saccharomyces cerevisiae MTCC 36 assessed as growth inhibition at 50 ug/ml after 48 hr by agar cup diffusion method; type: functional; settings: MTCC 36, 48 h, read-out: DIZ
[22] = tested on: Diutina rugosa; experiment: Antifungal activity against Candida rugosa NCIM 3462 assessed as growth inhibition at 50 ug/ml after 48 hr by agar cup diffusion method; type: functional; settings: NCIM 3462, 48 h, read-out: DIZ
[23] = tested on: Candida albicans; experiment: Antifungal activity against Candida albicans MTCC 227 assessed as growth inhibition at 50 ug/ml after 48 hr by agar cup diffusion method; type: functional; settings: MTCC 227, 48 h, read-out: DIZ
[24] = tested on: MCF7; experiment: Cytotoxicity against Homo sapiens (human) MCF7 cells assessed as cell viability at 5 uM after 48 hr by MTT assay relative to control; type: functional; settings: MCF7, 48 h, read-out: Activity
[25] = tested on: MDA-MB-231; experiment: Cytotoxicity against Homo sapiens (human) MDA-MB-231 cells assessed as cell viability at 5 uM after 48 hr by MTT assay relative to control; type: functional; settings: MDA-MB-231, 48 h, read-out: Activity

| Compound | viability at 10 µM [2] [%] | viability at 10 µM [3] [%] | zone of inhibition at 150 µg/mL [4] [mm] | zone of inhibition at 100 µg/mL [5] [mm] | zone of inhibition at 150 µg/mL [6] [mm] | zone of inhibition at 100 µg/mL [7] [mm] | zone of inhibition at 150 µg/mL [8] [mm] | zone of inhibition at 100 µg/mL [9] [mm] | zone of inhibition at 150 µg/mL [10] [mm] | zone of inhibition at 100 µg/mL [11] [mm] | MIC ([12]; read-out: MIC) [µg/mL] | MIC ([13]; read-out: MIC) [µg/mL] | MIC ([16]; read-out: MIC) [µg/mL] | MIC [17] [µg/mL] | MIC [18] [µg/mL] | MIC ([19]; read-out: MIC) [µg/mL] | MIC [16] [µg/mL] | further results |
| --- | --- | --- | --- | --- | --- | --- | --- | --- | --- | --- | --- | --- | --- | --- | --- | --- | --- | --- |
| C/C(=N\NC(=O)c1snnc1C(F)(F)F)c1ccccn1 | 63.6 | 25.4 | 0 | 0 | 0 | 0 | 0 | 0 | 0 | 0 | 150 (≈ 476 µM) | 150 (≈ 476 µM) | 150 (≈ 476 µM) | 150 (≈ 476 µM) | 150 (≈ 476 µM) | 150 (≈ 476 µM) |  | viability at 1 µM [1]: 41.7%; IC50 [14]: 6.01 µg/mL (≈ 19.1 µM); IC50 [15]: 2.74 µg/mL (≈ 8.69 µM) |
| O=C(N/N=C/c1ccccc1)c1snnc1C(F)(F)F | 102 | 102 | 0 | 0 | 0 | 0 | 6 | 0 | 12 | 10 |  | 150 (≈ 500 µM) |  | 150 (≈ 500 µM) | 150 (≈ 500 µM) | 150 (≈ 500 µM) | > 150 | MIC [12]: > 150 µg/mL |
| O=C(N/N=C/c1ccc(F)cc1)c1snnc1C(F)(F)F | 99.5 | 102 | 0 | 0 | 0 | 0 | 0 | 0 | 0 | 0 | 150 (≈ 471 µM) | 150 (≈ 471 µM) |  | 150 (≈ 471 µM) | 150 (≈ 471 µM) | 150 (≈ 471 µM) | > 150 |  |
| COc1ccc(/C=N/NC(=O)c2snnc2C(F)(F)F)cc1 | 101 | 87.3 | 0 | 0 | 0 | 0 | 0 | 0 | 0 | 0 | 150 (≈ 454 µM) | 150 (≈ 454 µM) |  | 150 (≈ 454 µM) | 150 (≈ 454 µM) | 150 (≈ 454 µM) | > 150 |  |
| O=C(N/N=C/c1ccco1)c1snnc1C(F)(F)F | 100 | 89.5 | 0 | 0 | 0 | 0 | 0 | 0 | 0 | 0 | 150 (≈ 517 µM) | 150 (≈ 517 µM) | 150 (≈ 517 µM) | 150 (≈ 517 µM) | 150 (≈ 517 µM) | 150 (≈ 517 µM) |  |  |
| O=C(N/N=C/c1cccs1)c1snnc1C(F)(F)F | 102 | 91.9 | 0 | 0 | 0 | 0 | 0 | 0 | 0 | 0 | 150 (≈ 490 µM) |  | 150 (≈ 490 µM) | 150 (≈ 490 µM) | 150 (≈ 490 µM) | 150 (≈ 490 µM) |  | MIC [13]: > 150 µg/mL |
| C/C(=N\NC(=O)c1snnc1C(F)(F)F)c1ccccc1 | 115 | 94.5 | 0 | 0 | 0 | 0 | 0 | 0 | 0 | 0 | 150 (≈ 477 µM) | 150 (≈ 477 µM) |  | 150 (≈ 477 µM) | 150 (≈ 477 µM) |  | > 150 | MIC [19]: > 150 µg/mL |
| C[C@@H]1[C@H](O)[C@@H](C)/C=C/C=C/C=C/C=C/C=C/C=C/C=C/[C@H](O[C@@H]2O[C@H](C)[C@@H](O)[C@H](N)[C@@H]2O)C[C@@H]2O[C@](O)(C[C@@H](O)C[C@@H](O)[C@H](O)CC[C@@H](O)C[C@@H](O)CC(=O)O[C@H]1C)C[C@H](O)[C@H]2C(=O)O [AMPHOTERICIN B] |  |  |  |  |  |  |  |  |  |  |  |  |  |  |  |  |  | zone of inhibition at 50 µg/mL [20]: 25 mm; zone of inhibition at 50 µg/mL [21]: 22 mm; zone of inhibition at 50 µg/mL [22]: 21 mm; zone of inhibition at 50 µg/mL [23]: 23.5 mm |
| COc1cccc2c1C(=O)c1c(O)c3c(c(O)c1C2=O)C[C@@](O)(C(=O)CO)C[C@@H]3O[C@H]1C[C@H](N)[C@H](O)[C@H](C)O1 [DOXORUBICIN] |  |  |  |  |  |  |  |  |  |  |  |  |  |  |  |  |  | viability at 5 µM [24]: 43.1%; viability at 5 µM [25]: 22.9% |
